Assay results reported in patent publication US9883669B2, “Maintenance medium for primate pluripotent stem cells” (priority 2014, dated 2018).

Tested on: human iPS cells (253G1 lines and 201B7 lines)
Test: Observation of colony morphology of human iPS cells by light microscope
Format: cell-based
Conditions: xylose 3 g/L, 0, 24, 48, 72 hours, KSR
Protocol: During culture period, medium change was performed daily.
For a xylose medium for iPS cells in which xylose concentrations were 3 g/L and 15 g/L, the morphology of iPS cell colonies at 96 and 120 hours after culture was also observed with a light microscope (IX70, manufactured by Olympus Corporation).

Row | Structure (SMILES) | colony morphology and proliferation inhibitory effects, D-xylose versus L-xylose
1 | O=C[C@H](O)[C@@H](O)[C@H](O)CO [D-xylose] | no differences
2 | O=C[C@@H](O)[C@H](O)[C@@H](O)CO [L-xylose] | no differences
